Data taken from US8853238B2, “Fused heterocyclic compound and use thereof for pest control” (Sumitomo Chemical Company, Limited, priority 2010, dated 2014).

Legend:
Assay type in all cases: in vivo
Aphis gossypii [1] = test: Test Example 1: spray on cucumber seedling inoculated with Aphis gossypii; conditions: topical, 144 h; 500 ppm active ingredient (Formulation Example 5 diluted with water); 20 ml sprayed on cucumber seedling with about 30 Aphis gossypii; six days after spraying
Procedure: On the other hand, on a cucumber seedling (the first true leaf stage) planted in a plastic cup was inoculated with about 30 Aphis gossypii, and leaving it for a day. Twenty ml of each of the above test spray solutions was sprayed on this seedling. Six days after spraying, the number of the surviving Aphis gossypii parasitized on the leaves of the cucumber was examined, and a control value was calculated according to the following equation: Control value (%)={1−(Cb×Tai)/(Cai×Tb))×100 wherein symbols represent as follows: Cb: the number of insects in a non-treated section before treatment, Cai: the number of insects in a non-treated section in observation, Tb: the number of insects in a treated-section before treatment, Tai: the number of insects in a treated-section in observation; wherein the non-treated section represents a section where the test spray solution prepared by diluting the formulation without the present compound in Formulation Example 5 with the same amount of water as in the treated-section was sprayed.

Bemisia tabaci = test: Test Example 6: spray on tomato seedling with Bemisia tabaci instar larvae; conditions: 168 h; 500 ppm active ingredient; 20 ml/cup sprayed on tomato seedling with hatched Bemisia tabaci instar larvae; after 7 days at 25° C.
Procedure: On the other hand, Bemisia tabaci adult was released on a tomato seedling (the third true leaf stage) planted in a polyethylene cup, and made to lay eggs for about 72 hours. The tomato seedling was kept in a greenhouse for 8 days. When instar larvae hatched from the eggs, the above test spray solution was sprayed in the amount of 20 ml/cup. The cup was kept in a greenhouse at 25° C. After the keeping for 7 days, the number of surviving instar larvae on the tomato leaves was examined, and a control value was calculated according to the following equation: Control value (%)={1−(Cb×Tai)/(Cai×Tb))×100 wherein symbols represent as follows: Cb: the number of insects in a non-treated section before treatment, Cai: the number of insects in a non-treated section in observation, Tb: the number of insects in a treated-section before treatment, Tai: the number of insects in a treated-section in observation; wherein the non-treated section represents a section where the test spray solution prepared by diluting the formulation without the present compound in Formulation Example 5 with the same amount of water as in the treated-section was sprayed.

[2] = test system: Adoxophyes orana fasciata; test: Test Example 8: spray on apple tree, release of Adoxophyes orana fasciata; conditions: in Malus domestica, 168 h; 500 ppm active ingredient; apple tree sprayed with 20 mL/cup; 60 first-instar Adoxophyes orana fasciata; after 7 days; read-out: Death rate
Procedure: On the other hand, an apple tree was planted in a plastic cup, and grown until the seventh-eighth leaf was spread. The apple tree was sprayed with 20 mL/cup of each of the test spray solution. After the test solution was dried, 60 first-instar Adoxophyes orana fasciata were released, and the cup was covered with a plastic cup upside-down which the bottom was cut off and a filter paper was put thereon. After 7 days, the number of living insects was counted, and a death rate was calculated according to the following equation: Death rate (%)=(Number of dead insects/Number of tested insects)×100

Nilaparvata lugens [3] = test: Test Example 4: spray on rice seedling, release of Nilaparvata lugens larvae; conditions: 144 h; 500 ppm active ingredient; rice seedling sprayed with 10 ml; third-fourth instar larvae of Nilaparvata lugens; after 6 days at 25° C.; read-out: Control value
Nilaparvata lugens [4] = test: Test Example 5: drench at foot of rice seedling, release of Nilaparvata lugens larvae; conditions: soil, 144 h; 500 ppm active ingredient; rice seedling drenched at its foot with 5 ml, kept 7 days; twenty third-fourth instar larvae of Nilaparvata lugens; examined after 6 days
Procedure: On the other hand, a rice seedling (2 weeks after sowing, the second leaf stage) planted in a plastic cup was drenched at its foot with 5 ml of each of the diluted solutions, and kept in a greenhouse of 25° C. for 7 days. Twenty third-fourth instar larvae of Nilaparvata lugens were released, and further kept in the greenhouse for 6 days, then the number of insect of living Nilaparvata lugens parasitized on the rice was examined, and a control value was calculated according to the following equation: Control value (%)={1−(Cb×Tai)/(Cai×Tb))×100 wherein symbols represent as follows: Cb: the number of insects in a non-treated section before treatment, Cai: the number of insects in a non-treated section in observation, Tb: the number of insects in a treated-section before treatment, Tai: the number of insects in a treated-section in observation; wherein the non-treated section represents a section where the test diluted solution prepared by diluting the formulation without the present compound in Formulation Example 5 with the same amount of water as in the treated-section was used.

Aphis gossypii [5] = test: Test Example 2: root immersion of cucumber seedling, then inoculation with Aphis gossypii; conditions: 168 h; 500 ppm active ingredient; cucumber root part immersed in 5 ml; 30 Aphis gossypii inoculated one day after treatment; examined after further seven days
Procedure: A root part of a cucumber seedling (the first true leaf stage) from which soil had been washed off was immersed in 5 ml of each of the diluted solutions, and one day after treatment, on the cucumber leaf surface was inoculated with 30 Aphis gossypii (whole stage). After further seven days, the number of insect of living Aphis gossypii parasitized on the leaves of the cucumber was examined, and a control value was calculated according to the following equation: Control value (%)={1−(Cb×Tai)/(Cai×Tb))×100 wherein symbols represent as follows: Cb: the number of insects in a non-treated section before treatment, Cai: the number of insects in a non-treated section in observation, Tb: the number of insects in a treated-section before treatment, Tai: the number of insects in a treated-section in observation; wherein the non-treated section represents a section where the test diluted solution prepared by diluting the formulation without the present compound in Formulation Example 5 with the same amount of water as in the treated-section was used.

CC[S+]([O-])c1ccccc1-c1nc2cc(C(F)(F)F)cc(Br)c2n1C (stereo not shown) [Present Compound 75, 7-bromo-2-(2-ethylsulfinylphenyl)-1-methyl-5-trifluoromethyl-1H-benzimidazole] was tested, and the pest or weed control at 500 ppm (Aphis gossypii [1]) was no less than 90% and the pest or weed control at 500 ppm (Bemisia tabaci) was no less than 90%.
Work on CCS(=O)(=O)c1cc(C(F)(F)F)ccc1-c1nc2cc(C(F)(F)F)cnc2s1 [compound 251, 2-[2-ethylsulfonyl-4-(trifluoromethyl)phenyl]-6-(trifluoromethyl)thiazolo[5,4-b]pyridine] yielded a pest or weed control at 500 ppm [2] of no less than 90%, a pest or weed control at 500 ppm (Nilaparvata lugens [3]) of no less than 90% and a pest or weed control at 500 ppm (Nilaparvata lugens [4]) of no less than 90%.
Work on CCSc1ccccc1-c1nc2cc(C(F)(F)F)cnc2n1CC [Present Compound 21, 3-ethyl-2-(2-ethylsulfanylphenyl)-6-trifluoromethyl-3H-imidazo[4,5-b]pyridine] yielded a pest or weed control at 500 ppm (Nilaparvata lugens [3]) of no less than 90% and a pest or weed control at 500 ppm (Bemisia tabaci) of no less than 90%.
CCS(=O)(=O)c1cc(S(F)(F)(F)(F)F)ccc1-c1nc2cc(C(F)(F)F)cnc2n1C [compound 343, 2-(2-ethylsulfonyl-4-(pentafluorosulphur)phenyl)-3-methyl-6-trifluoromethyl-3H-imidazo[4,5-b]pyridine] showed a pest or weed control at 500 ppm (Aphis gossypii [1]) of no less than 90%, a pest or weed control at 500 ppm (Nilaparvata lugens [3]) of no less than 90% and a pest or weed control at 500 ppm (Nilaparvata lugens [4]) of no less than 90%. For the same molecule, the pest or weed control at 500 ppm (Bemisia tabaci) was no less than 90%.
Molecule CCS(=O)(=O)c1ccccc1-c1nc2cc(C(F)(F)F)cnc2n1C(C)C [Present Compound 29, 2-(2-ethylsulfonylphenyl)-3-isopropyl-6-trifluoromethyl-3H-imidazo[4,5-b]pyridine] has a pest or weed control at 500 ppm [2] of no less than 90%.
Cn1c(-c2ccccc2S(=O)(=O)CC(F)(F)F)nc2cc(C(F)(F)F)cnc21 [compound 188] was tested, and the pest or weed control at 500 ppm (Aphis gossypii [1]) was no less than 90%, the pest or weed control at 500 ppm (Nilaparvata lugens [3]) was no less than 90% and the pest or weed control at 500 ppm (Bemisia tabaci) was no less than 90%.
Molecule CC(C)[S+]([O-])c1ccccc1-c1nc2cc(C(F)(F)F)cnc2n1C (stereo not shown) [Present Compound 13, 2-(2-isopropylsulfinylphenyl)-3-methyl-6-trifluoromethyl-3H-imidazo[4,5-b]pyridine] has a pest or weed control at 500 ppm [2] of no less than 90% and a pest or weed control at 500 ppm (Aphis gossypii [5]) of no less than 90%.
With CCn1c(-c2ccccc2[S+]([O-])CC)nc2cc(C(F)(F)F)cnc21 (stereo not shown) [Present Compound 22, 2-(2-ethylsulfinylphenyl)-3-ethyl-6-trifluoromethyl-3H-imidazo[4,5-b]pyridine] the pest or weed control at 500 ppm [2] was no less than 90% and the pest or weed control at 500 ppm (Bemisia tabaci) was no less than 90%.
Work on CCSc1c(Cl)cccc1-c1nc2cc(C(F)(F)F)cnc2n1C [Present Compound 88, 2-(3-chloro-2-ethylsulfanylphenyl)-3-methyl-6-trifluoromethyl-3H-imidazo[4,5-b]pyridine] yielded a pest or weed control at 500 ppm (Aphis gossypii [5]) of no less than 90% and a pest or weed control at 500 ppm (Bemisia tabaci) of no less than 90%.
In the case of CCn1c(-c2ccccc2S(=O)(=O)CC)nc2cc(C(F)(F)F)cnc21 [Present Compound 23, 2-(2-ethylsulfonylphenyl)-3-ethyl-6-trifluoromethyl-3H-imidazo[4,5-b]pyridine], the pest or weed control at 500 ppm [2] is reported as no less than 90%.
CC[S+]([O-])c1ccccc1-c1nc2cc(C(F)(F)F)cnc2n1C(C)C (stereo not shown) [Present Compound 28, 2-(2-ethylsulfinylphenyl)-3-isopropyl-6-trifluoromethyl-3H-imidazo[4,5-b]pyridine] gave a pest or weed control at 500 ppm [2] of no less than 90%.
For CC(C)S(=O)(=O)c1ccccc1-c1nc2cc(C(F)(F)F)cnc2n1C [Present Compound 14, 2-(2-isopropylsulfonylphenyl)-3-methyl-6-trifluoromethyl-3H-imidazo[4,5-b]pyridine], the pest or weed control at 500 ppm [2] was no less than 90%, the pest or weed control at 500 ppm (Aphis gossypii [5]) was no less than 90% and the pest or weed control at 500 ppm (Nilaparvata lugens [3]) was no less than 90%.
With CC[S+]([O-])c1ccccc1-c1nc2cc(C(F)(F)F)cnc2n1C1CC1 (stereo not shown) [Present Compound 31, 3-cyclopropyl-2-(2-ethylsulfinylphenyl)-6-trifluoromethyl-3H-imidazo[4,5-b]pyridine] the pest or weed control at 500 ppm [2] was no less than 90%.
C=CCS(=O)(=O)c1ccccc1-c1nc2cc(C(F)(F)F)cnc2n1C [Present Compound 11, 2-(2-allylsulfonylphenyl)-3-methyl-6-trifluoromethyl-3H-imidazo[4,5-b]pyridine] gave a pest or weed control at 500 ppm [2] of no less than 90%.
